A short description of data set [1]: Intrinsic dissolution rate (disc method, HPLC analysis). In kind it is physicochemical. The conditions noted are these: phosphate buffer saline, 37° C., 200 rpm; for Intrinsic dissolution rate: 50 mg disc, drug equivalent to risperidone dissolved per unit area per unit time. Here is the method: The risperidone hemipamoate of example-1 has intrinsic dissolution rates much less than that compared to risperidone alone as disclosed herein below. The intrinsic dissolution rates were determined by preparing discs of sample (50 mg) and performing dissolution by mounting the sample on shaft of dissolution apparatus with help of disc adaptor. The dissolution was performed in phosphate buffer saline, at 37° C. and rotation of 200 rpm. Samples were withdrawn at regular interval and analyzed by high performance liquid chromatography. The intrinsic dissolution rate was calculated as amount of drug (equivalent to risperidone) dissolved per unit area per unit time.

A short description of data set [2]: pK study in Wistar rats, aqueous suspensions by intramuscular route. In kind it is in vivo, male wistar rats. Conditions: single IM dose, 3.6 mg equivalent risperidone base, aqueous suspension, figure-3. As to the method: A comparative evaluation of pharmacokinetic profile of Risperidone, Rispridone pamoate and Risperidone hemipamoate was carried out in male wistar rats. Aqueous suspension formulations of Risperidone base, Pamoate and hemipamoate salt containing 3.6 mg equivalent risperidone base were administered through intramuscular route. Each group (N=5) was administered a single dose. Blood samples were withdrawn at predefined time interval for measurement of Risperidone and 9-hydroxyrisperidone.

The conditions of data set [3]: poorly soluble salt suspended in aqueous vehicle, dogs; cited from earlier work.

Regarding `Cc1nc2n(c(=O)c1CCN1CCC(c3noc4cc(F)ccc34)CC1)CCCC2` [Risperidone, 3-[2-[4-(6-fluoro-1,2-benzisoxazol-3-yl)-1-piperidinyl]ethyl]-6,7,8,9-tetrahydro-2-methyl-4H-pyrido[1,2-a]pyrimidin-4-one], in data set [1], the Intrinsic dissolution rate was 1.89 mg/cm^2/h.
For the molecule `Cc1nc2n(c(=O)c1CCN1CCC(c3noc4cc(F)ccc34)CC1)CCCC2.Cc1nc2n(c(=O)c1CCN1CCC(c3noc4cc(F)ccc34)CC1)CCCC2.O=C(O)c1cc2ccccc2c(Cc2c(O)c(C(=O)O)cc3ccccc23)c1O` [Risperidone hemipamoate], in data set [1], the “Intrinsic dissolution rate compared to risperidone alone” value is “much less” and the Intrinsic dissolution rate came out at 0.49 mg/cm^2/h. In data set [2], the “Absorption after IM administration” value is “absorbed rapidly”, the “Exposure duration compared to risperidone pamoate” value is “remains sustained for longer duration” and the Plasma level course result was “sustains for long duration comparatively”.
Turning to `Cc1nc2n(c(=O)c1CCN1CCC(c3noc4cc(F)ccc34)CC1)CCCC2` [Risperidone pamoate, reference compound], in data set [2], the “Absorption after IM administration” value is “absorbed rapidly” and the Plasma level course result was “falls quickly”. Besides, the Period of effectiveness entry in data set [3] is reported as “over 2 week”.

The values above are taken from US9040695B2, “Acid addition salts of risperidone and pharmaceutical compositions thereof” (TORRENT PHARMACEUTICALS LIMITED, priority 2011, dated 2015).
